Measurements: patent US11390603B2, “Crystalline forms of a biphenyl compound” (THERAVANCE BIOPHARMA R&D IP, LLC, priority 2005, dated 2022)

Tested on: guinea pigs
Experiment: Duration of bronchoprotection in guinea pig model of acetylcholine-induced bronchoconstriction
Type: in vivo
Conditions: 1.5 hours post-dose, inhalation
Procedure: Groups of six male guinea pigs (Duncan-Hartley (HsdPoc:DH) Harlan, Madison, Wis.) weighing between 250 and 350 g are individually identified by cage cards. Throughout the study animals are allowed access to food and water ad libitum.
Test compounds are administered via inhalation over 10 minutes in a whole-body exposure dosing chamber (R&S Molds, San Carlos, Calif.). The dosing chambers are arranged so that an aerosol was simultaneously delivered to 6 individual chambers from a central manifold. Guinea pigs are exposed to an aerosol of a test compound or vehicle (WFI). […] This is measured gravimetrically by comparing pre-and post-nebulization weights of the filled nebulizer.
The bronchoprotective effects of test compounds administered via inhalation are evaluated using whole body plethysmography at 1.5, 24, 48 and 72 hours post-dose.
Forty-five minutes prior to the start of the pulmonary evaluation, each guinea pig is anesthetized with an intramuscular injection of ketamine (43.75 mg/kg), xylazine (3.50 mg/kg) and acepromazine (1.05 mg/kg). […] The depth of anesthesia is monitored and adjusted if the animal responds to pinching of its paw or if the respiration rate is greater than 100 breaths/minute. […]
Starting this program initiates the experimental protocol and data collection. […] By integrating this signal over time, a measurement of […] is calculated for each breath. […]

For `CN(CCN1CCC(OC(=O)Nc2ccccc2-c2ccccc2)CC1)C(=O)c1ccc(CN2CCC(C(N)=O)CC2)cc1` [compound of formula I, biphenyl-2-ylcarbamic acid 1-(2-{[4-(4-carbamoylpiperidin-1-ylmethyl)benzoyl]methylamino}ethyl)piperidin-4-yl ester], the “PD2(50) for ACh-induced bronchoconstriction” value was “less than 200 μg/mL”.
